According to US20230234942A1, “COMPOUNDS FOR TREATING HUNTINGTON'S DISEASE” (PTC Therapeutics, Inc., priority 2020, published 2023):

Test system: Endogenous Huntingtin Protein
Assay: Endogenous Huntingtin Protein Assay (ELISA-based MSD electrochemiluminescence)
Assay type: cell-based
Conditions: Table 2; MSD plates coated with MW1 (expanded polyglutamine) or MAB2166 capture antibody; "inactive" = result above the detection limit of the assay
Outline: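 MSD electrochemiluminescence sandwich ELISA: capture with MW1 (expanded polyQ) or MAB2166 at 1 µg/mL, samples incubated overnight at 4 °C. Detection by rabbit mAb #56565 then SULFO-TAG anti-rabbit antibody, each 0.25 µg/mL for 1 h at room temperature, read in buffer T on SI 6000 imager.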

## [2H]C([2H])([2H])n1cc(-c2ccc(-c3cnc(N4C[C@@H](C)N[C@@H](C5CCC5)C4)nn3)c(O)c2)cn1 [Cpd 238, 2-{3-[(3S,5R)-3-cyclobutyl-5-methylpiperazin-1-yl]-1,2,4-triazin-6-yl}-5-[l-(^2H3)methyl-1H-pyrazol-4-yl]phenol]
  IC50: 55.1 nM

## Cn1nc2cc(-c3ccc(-c4cnc(N5CCN[C@H](C6(C)CC6)C5)nn4)c(O)c3)cnc2n1 [Cpd 242, 2-{3-[(3R)-3-(1-methylcyclopropyl)piperazin-1-yl]-1,2,4-triazin-6-yl}-5-(2-methyl-2H-[1,2,3]triazolo[4,5-b]pyridin-6-yl)phenol]
  IC50: 106 nM

## [2H]C([2H])([2H])n1cc(-c2ccc(-c3cnc(N4C[C@@H](C)N(C)[C@@H](C)C4)nn3)c(O)c2)cn1 [Cpd 51, 5-[1-(^2H3)methyl-1H-pyrazol-4-yl]-2-{3-[(3R,5S)-3,4,5-trimethylpiperazin-1-yl]-1,2,4-triazin-6-yl}phenol]
  IC50: 330 nM

## Cc1nc(-c2ccc(-c3cnc(N4CCN[C@@H](C5CC5)C4)nn3)c(O)c2)cs1 [Cpd 246, 2-{3-[(3S)-3-cyclopropylpiperazin-1-yl]-1,2,4-triazin-6-yl}-5-(2-methyl-1,3-thiazol-4-yl)phenol]
  IC50: 28.4 nM

## Cc1cn2nc(-c3ccc(-c4cnc(N5C[C@@H](C)N[C@@H](C)C5)nn4)c(O)c3)ccc2n1 [Cpd 75, 2-{3-[(3R,5S)-3,5-dimethylpiperazin-1-yl]-1,2,4-triazin-6-yl}-5-(2-methylimidazo[1,2-b]pyridazin-6-yl)phenol]
  IC50: 4.3 nM

## Oc1cc(-c2cn[nH]c2)ccc1-c1cnc(N2CCN3CCCC3C2)nn1 (centres unmarked) [Cpd 284, 2-[3-(hexahydropyrrolo[1,2-a]pyrazin-2(1H)-yl)-1,2,4-triazin-6-yl]-5-(1H-pyrazol-4-yl)phenol]
  IC50: 91.4 nM

## CC(C)[C@H]1CN(c2ncc(-c3ccc(-c4cnn5ccccc45)cc3O)nn2)CCN1 [Cpd 244, 2-{3-[(3S)-3-(propan-2-yl)piperazin-1-yl]-1,2,4-triazin-6-yl}-5-(pyrazolo[1,5-a]pyridin-3-yl)phenol]
  IC50: 382 nM

## Cc1cn2nc(-c3ccc(-c4cnc(N5CCN(C)CC5)nn4)c(O)c3)cc(C)c2n1 [Cpd 104, 5-(2,8-dimethylimidazo[1,2-b]pyridazin-6-yl)-2-[3-(4-methylpiperazin-1-yl)-1,2,4-triazin-6-yl]phenol]
  IC50: 14.6 nM

## CC(C)(O)[C@H]1CN(c2ncc(-c3ccc(-c4c[nH]nc4F)cc3O)nn2)CCN1 [Cpd 25, 5-(3-fluoro-1H-pyrazol-4-yl)-2-{3-[(3R)-3-(2-hydroxypropan-2-yl)piperazin-1-yl]-1,2,4-triazin-6-yl]phenol]
  IC50: 24.6 nM

## CC(C)(O)C1CN(c2ncc(-c3ccc(-c4cn[nH]c4)cc3O)nn2)CCN1 (centres unmarked) [Cpd 13, 2-{3-[3-(2-hydroxypropan-2-yl)piperazin-1-yl]-1,2,4-triazin-6-yl}-5-(1H-pyrazol-4-yl)phenol]
  IC50: 11.4 nM

## COc1cc(-c2ccc(-c3cnc(N4C[C@@H](C)N[C@@H](C(C)C)C4)nn3)c(O)c2)ccn1 [Cpd 257, 5-(2-methoxypyridin-4-yl)-2-{3-[(3R,5S)-3-methyl-5-(propan-2-yl)piperazin-1-yl]-1,2,4-triazin-6-yl}phenol]
  IC50: 19.8 nM

## CC(C)[C@H]1CN(c2ncc(-c3ccc(-c4nc(C(F)F)cs4)cc3O)nn2)CCN1 [Cpd 186, 5-[4-(difluoromethyl)-1,3-thiazol-2-yl]-2-{3-[(3S)-3-(propan-2-yl)piperazin-1-yl]-1,2,4-triazin-6-yl}phenol]
  IC50: 77.7 nM

## Cn1nnc2ccc(-c3ccc(-c4cnc(N5CCN[C@@H](C6CC6)C5)nn4)c(O)c3)nc21 [Cpd 173, 2-{3-[(3S)-3-cyclopropylpiperazin-1-yl]-1,2,4-triazin-6-yl}-5-(3-methyl-3H-[1,2,3]triazolo[4,5-b]pyridin-5-yl)phenol]
  IC50: 21.3 nM

## CC(C)[C@H]1CN(c2ncc(-c3ccc(-c4cc(F)c5nn(C)cc5c4)cc3O)nn2)CCN1 [Cpd 81, 5-(7-fluoro-2-methyl-2H-indazol-5-yl)-2-{3-[(3S)-3-(propan-2-yl)piperazin-1-yl]-1,2,4-triazin-6-yl}phenol]
  IC50: 5.4 nM

## CC[C@H]1CN(c2ncc(-c3ccc(-c4cc(OC)ncn4)cc3O)nn2)C[C@@H](C)N1 [Cpd 234, 2-{3-[(3S,5R)-3-ethyl-5-methylpiperazin-1-yl]-1,2,4-triazin-6-yl}-5-(6-methoxypyrimidin-4-yl)phenol]
  IC50: 8.7 nM

## [2H]C([2H])([2H])n1cc(-c2ccc(-c3cnc(N4CCN[C@@H](C5CC5)C4)nn3)c(O)c2)cn1 [Cpd 9, 2-{3-[(3S)-3-cyclopropylpiperazin-1-yl]-1,2,4-triazin-6-yl}-5-[1-(^2H3)methyl-1H-pyrazol-4-yl]phenol]
  IC50: 9.5 nM

## C[C@@H]1CN(c2ncc(-c3ccc(-c4cc(C#N)c5nn(C)cc5c4)cc3O)nn2)C[C@H](C)N1 [Cpd 80, 5-(4-{3-[(3R,5S)-3,5-dimethylpiperazin-1-yl]-1,2,4-triazin-6-yl}-3-hydroxyphenyl)-2-methyl-2H-indazole-7-carbonitrile]
  IC50: 5.3 nM

## Cc1cn2cc(-c3ccc(-c4cnc(N5CCN[C@@H](C(C)C)C5)nn4)c(O)c3)nc(C)c2n1 [Cpd 96, 5-(2,8-dimethylimidazo[1,2-a]pyrazin-6-yl)-2-{3-[(3S)-3-(propan-2-yl)piperazin-1-yl]-1,2,4-triazin-6-yl]phenol]
  IC50: 8.6 nM

## COc1cc(-c2ccc(-c3cnc(N4C[C@@H](C5CC5)N[C@@H](C)C4)nn3)c(O)c2)nc(OC)n1 [Cpd 220, 2-{3-[(3R,5S)-3-cyclopropyl-5-methylpiperazin-1-yl]-1,2,4-triazin-6-yl}-5-(2,6-dimethoxypyrimidin-4-yl)phenol]
  IC50: 88.3 nM

## Cc1cn2nc(-c3ccc(-c4cnc(N5C[C@@H](C)N[C@@H](C)C5)nn4)c(O)c3)cc(C)c2n1 [Cpd 69, 5-(2,8-dimethylimidazo[1,2-b]pyridazin-6-yl)-2-{3-[(3R,5S)-3,5-dimethylpiperazin-1-yl]-1,2,4-triazin-6-yl}phenol]
  IC50: 3.6 nM

## CC(C)[C@H]1CN(c2ncc(-c3ccc(-c4cnn(C)n4)cc3O)nn2)CCN1 [Cpd 262, 5-(2-methyl-2H-1,2,3-triazol-4-yl)-2-{3-[(3S)-3-(propan-2-yl)piperazin-1-yl]-1,2,4-triazin-6-yl}phenol]
  IC50: 94.2 nM

## Cc1cc(C)n2nc(-c3ccc(-c4cnc(N5C[C@@H](C)N[C@@H](C)C5)nn4)c(O)c3)nc2n1 [Cpd 117, 2-{3-[(3R,5S)-3,5-dimethylpiperazin-1-yl]-1,2,4-triazin-6-yl}-5-(5,7-dimethyl[1,2,4]triazolo[1,5-a]pyrimidin-2-yl)phenol]
  IC50 (nM): inactive

## Cc1cnc2nc(-c3ccc(-c4cnc(N5C[C@@H](C)N[C@@H](C)C5)nn4)c(O)c3)sc2n1 [Cpd 119, 2-{3-[(3R,5S)-3,5-dimethylpiperazin-1-yl]-1,2,4-triazin-6-yl}-5-(6-methyl[1,3]thiazolo[4,5-b]pyrazin-2-yl)phenol]
  IC50 (nM): inactive

## Cc1cc(-c2ccc(-c3cnc(N4CCNC(C(C)C)C4)nn3)c(O)c2)ccn1 (centres unmarked) [Cpd 44, 5-(2-methylpyridin-4-yl)-2-{3-[3-(propan-2-yl)piperazin-1-yl]-1,2,4-triazin-6-yl}phenol]
  IC50: 138 nM

## Oc1cc(-c2cn[nH]c2)ccc1-c1cnc(N2CCNC(C3CC3(F)F)C2)nn1 (centres unmarked) [Cpd 36, 2-{3-[3-(2,2-dilluorocyclopropyl)piperazin-1-yl]-1,2,4-triazin-6-yl}-5-(1H-pyrazol-4-yl)phenol]
  IC50: 47.7 nM

## CC(C)[C@H]1CN(c2ncc(-c3ccc(-c4ncns4)cc3O)nn2)C[C@@H](C)N1 (single isomer, unassigned) [Cpd 268, 2-{3-[(3R,5S)-3-methyl-5-(propan-2-yl)piperazin-1-yl]-1,2,4-triazin-6-yl}-5-(1,2,4-thiadiazol-5-yl)phenol or 2-{3-[(3S,5R)-3-methyl-5-(propan-2-yl)piperazin-1-yl]-1,2,4-triazin-6-yl}-5-(1,2,4-thiadiazol-5-yl)phenol]
  IC50: 124 nM

## CC[C@H]1CN(c2ncc(-c3ccc(-n4nccn4)cc3O)nn2)CCN1 [Cpd 132, 2-{3-[(3S)-3-ethylpiperazin-1-yl]-1,2,4-triazin-6-yl}-5-(2H-1,2,3-triazol-2-yl)phenol]
  IC50: 38.9 nM

## Cc1cn2cc(-c3ccc(-c4cnc(N5CCN[C@@H](C(C)C)C5)nn4)c(O)c3)ncc2n1 [Cpd 141, 5-(2-methylimidazo[1,2-a]pyrazin-6-yl)-2-{3-[(3S)-3-(propan-2-yl)piperazin-1-yl]-1,2,4-triazin-6-yl}phenol]
  IC50: 2.3 nM

## Oc1cc(-c2cnn3c2CCCC3)ccc1-c1cnc(N2CCNC(C3CC3)C2)nn1 (single isomer, unassigned) [Cpd 277, 2-{3-[(3S)-3-cyclopropylpiperazin-1-yl]-1,2,4-triazin-6-yl}-5-(4,5,6,7-tetrahydropyrazolo[1,5-a]pyridin-3-yl)phenol or 2-{3-[(3R)-3-cyclopropylpiperazin-1-yl]-1,2,4-triazin-6-yl}-5-(4,5,6,7-tetrahydropyrazolo[1,5-a]pyridin-3-yl)phenol]
  IC50: 24.8 nM

## CC(C)[C@H]1CN(c2ncc(-c3ccc(-c4cn5ccnc5cn4)cc3O)nn2)CCN1 [Cpd 113, 5-(imidazo[1,2-a]pyrazin-6-yl)-2-{3-[(3S)-3-(propan-2-yl)piperazin-1-yl]-1,2,4-triazin-6-yl}phenol]
  IC50: 36 nM

## C[C@@H]1CN(c2ncc(-c3ccc(-c4cn[nH]c4F)cc3O)nn2)C[C@H](C2CC2)N1 [Cpd 221, 2-{3-[(3S,5R)-3-cyclopropyl-5-methylpiperazin-1-yl]-1,2,4-triazin-6-yl]-5-(5-fluoro-1H-pyrazol-4-yl)phenol]
  IC50: 4.4 nM

## [2H]C([2H])([2H])n1cc(-c2ccc(-c3cnc(N4CC5CCC(C4)N5C)nn3)c(O)c2)cn1 [Cpd 58, 2-[3-(8-methyl-3,8-diazabicyclo[3.2.1]octan-3-yl)-1,2,4-triazin-6-yl]-5-[l-(^2H3)methyl-1H-pyrazol-4-yl]phenol]
  IC50: 678 nM
